Results published in patent publication EP4631503A1, “AVL-292 OR MK-5108 FOR USE IN THE TREATMENT OF PDAC” (priority 2024, dated 2025).
Like-named read-outs stand apart in the source and are kept apart here.

Experiments:
MTT cell viability assay = type: cell-based; settings: Homo sapiens, PANC-1, 48 h, Pane1 cells, two days
Protocol: Pane1 and HPAF II cells were cultured with DMEM (D0822, Sigma-Aldrich) supplemented with 10% fetal bovine serum (FBS, F7524, Sigma-Aldrich), 1% P/S (P4333, Sigma-Aldrich). For siRNA treatment, 200,000 cells for a 6well plate and 20,000 cells per well for a 96well plate were seeded. siRNAs were purchased in Origene, CDCA5 (SR314367, Origene), KIF18A (SR313129, Origene), KIF23 (SR306300, Origene), TPX2 (SR307905, Origene), and cells were transfected by Lipofectamine® RNAiMAX (13778-075, Invitrogen) for two days. Small molecules which repositioned were purchased by AVL-292 (HY-18012, MCE), BCI-50 (HY-17553, MCE), MK-5108 (HY-13252, MCE), AZD1208 (HY-15604, MCE), SKA-31 (HY111655, MCE), Y-26763 (HY-101069, MCE), Estropipate (HY-B1361, MCE), Tiquizium (sc-474386, Santa Cruz), Acyclovir (HY-17422, MCE), and Cyproterone acetate (HY-13604, MCE) and dissolved into DMSO. Drugs were treated to cells for two days at 10µM. Cell viability was measured by MTT assay (M6494, ThermoFisher) by following the manufacturer's instructions. O.D values were detected with a microplate reader (Hidex Sense Beta Plus).

HPAF II = experiment: MTT cell viability assay; type: cell-based; settings: Homo sapiens, 48 h
Protocol: Pane1 and HPAF II cells were cultured with DMEM (D0822, Sigma-Aldrich) supplemented with 10% fetal bovine serum (FBS, F7524, Sigma-Aldrich), 1% P/S (P4333, Sigma-Aldrich). […] Drugs were treated to cells for two days at 10µM. Cell viability was measured by MTT assay (M6494, ThermoFisher) by following the manufacturer's instructions. O.D values were detected with a microplate reader (Hidex Sense Beta Plus).

cleaved PRAP = experiment: Western blot, apoptotic marker; type: cell-based; settings: apoptotic gene
Protocol: (§1) Pane1 and HPAF II cells were seeded into a 6-well plate at 200,000 cells per well concentration. After siRNA transfection and drug treatment, whole cell lysate was prepared with CelLytic M (C2978, Sigma-Aldrich) buffer and samples were prepared with 2x Laemmli Sample Buffer (1610737, Biorad) at 20µg protein lysate. SDS PAGE was performed Mini-PROTEAN® TGX™ Precast Gels (Bio-Rad) and transferred using Trans-Blot® Turbo™ Transfer System (Bio-Rad). CDCA5 (ab192237, abcam), KIF18A (ab72417, abcam), KIF23 (HPA068831, Sigma Aldrich), TPX2 (ab252944, abeam), Aurora A (ab108353, abeam), Aurora B (ab287960, abcam), PARP (9542S, Cell signaling), […] (ab2324, abcam), β-actin (ab8227, abeam), GAPDH (ab8245, abeam), and α-tubulin (ab7291, abcam) were blotted as a primary antibody for overnight. Secondary antibodies, Goat Anti-Rabbit HRP (ab205718) and goat anti-mouse IgG-HRP (sc2005, Santa Cruz Biotechnology, Inc.) were blotted for one hour. The protein band was detected with ImageQuantTMLAS 500 (29-0050-63, GE).

[1] = Western blot, apoptotic marker; type: cell-based; settings: apoptotic gene
Protocol: as §1

KIF18A = experiment: Western blot, protein expression level; type: cell-based; settings: Pane1 cells, 10 µM, in words
Protocol: as §1

KIF23 = experiment: Western blot, protein expression level; type: cell-based; settings: cells, 10 µM, in words
Protocol: as §1

AURKB = experiment: Western blot, protein expression level; type: cell-based; settings: cells, 10 µM, in words
Protocol: as §1

TPX2 = experiment: Western blot, protein expression level; type: cell-based; settings: cells, 10 µM, in words
Protocol: as §1

AURKA = experiment: Western blot, protein expression level; type: cell-based; settings: cells, 10 µM, in words
Protocol: as §1

CDCA5 = experiment: Western blot, protein expression level; type: cell-based; settings: cells, 10 µM, in words
Protocol: as §1

[2] = taken orally, phase I trial; cited from earlier work
PDAC = settings: phase II clinical trials; cited from earlier work

C=CC(=O)Nc1cccc(Nc2nc(Nc3ccc(OCCOC)cc3)ncc2F)c1 [AVL-292]
viability at 10 µM (MTT cell viability assay): 60.7%
viability at 10 µM (HPAF II; HPAF-II): 71.6%
protein expression level of cleaved PRAP (cleaved PRAP): increased
protein expression level of Cas9 [1]: increased

O=C(O)[C@]1(Cc2cccc(Nc3nccs3)n2)CC[C@@H](Oc2cccc(Cl)c2F)CC1 [MK-5108]
viability at 10 µM (MTT cell viability assay): 45.8%
KIF18A expression change (KIF18A): over-expressed
KIF23 expression change (KIF23): over-expressed
AURKB expression change (AURKB): no obvious effect
TPX2 expression change (TPX2): over-expressed
AURKA expression change (AURKA): over-expressed
CDCA5 expression change (CDCA5): over-expressed
viability at 10 µM (HPAF II; HPAF II cells, 10µM, two days, read-out: viability): 69.5%
tolerability in patients [2]: well tolerated
protein expression level of cleaved PRAP (cleaved PRAP): increased
protein expression level of Cas9 [1]: increased

CN(C)C(=N)N=C(N)N [Metformin]
extended survival, average (PDAC): 0.8 months
